Source: PubChem BioAssay (NCI)
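Protocol summary: plate cells (96-well), add compound at 5 concentrations, incubate 48 h, interpolate endpoints linearly. Abbreviation: GI50, concentration required for 50% inhibition of growth. TGI: total growth inhibition.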

Key:
Experiment in all cases: NCI-60 cell line screen, 48 h; in the data active means GI50 below about 0.43 µM; inactive means the rest
[1] = test system: BT-549 breast
[2] = test system: SK-MEL-28 melanoma
[3] = test system: SF-539 CNS
[4] = test system: ACHN renal
[5] = test system: PC-3 prostate
[6] = test system: SF-268 CNS
[7] = test system: HL-60(TB) leukemia
[8] = test system: CCRF-CEM leukemia
[9] = test system: SNB-75 CNS
[10] = test system: HS 578T breast
[11] = test system: HCT-116 colon
[12] = test system: NCI-H522 lung
[13] = test system: SW-620 colon
[14] = test system: MALME-3M melanoma
[15] = test system: NCI-H226 lung
[16] = test system: HCC-2998 colon
[17] = test system: COLO 205 colon
[18] = test system: IGROV1 ovarian
[19] = test system: U251 CNS
[20] = test system: KM12 colon
[21] = test system: M14 melanoma
[22] = test system: NCI-H23 lung
[23] = test system: NCI-H460 lung
[24] = test system: K-562 leukemia
[25] = test system: A498 renal
[26] = test system: OVCAR-4 ovarian
[27] = test system: OVCAR-8 ovarian
[28] = test system: SK-MEL-2 melanoma

CC[C@H](C)[C@H](NC(=O)c1nccn1C)C(=O)N(C)[C@H](C[C@@H](OC(C)=O)c1nc(C(=O)N[C@@H](Cc2ccccc2)C[C@H](C)C(=O)OC)cs1)C(C)C
1.97 µM: TGI [3]
> 33.3 µM: TGI [2] | TGI [4] | TGI [5] | TGI [6] | TGI [8] | TGI [9] | TGI [10] | TGI [11] | TGI [13] | TGI [14] | TGI [15] | TGI [16] | TGI [18] | TGI [19] | TGI [20] | TGI [22] | TGI [23] | TGI [24] | TGI [25] | TGI [26] | TGI [27] | TGI [28]
3.94 µM: TGI [1]
inactive: GI50 [2] 5.05 µM | GI50 [3] 0.702 µM | GI50 [4] 2.06 µM | GI50 [5] 1.11 µM | GI50 [6] 1.43 µM | GI50 [7] 0.642 µM | GI50 [8] 1.04 µM | GI50 [10] 1.11 µM | GI50 [11] 0.724 µM | GI50 [13] 1.33 µM | GI50 [14] 5.87 µM | GI50 [15] 8.51 µM | GI50 [16] 1.08 µM | GI50 [17] 0.99 µM | GI50 [18] 0.704 µM | GI50 [19] 1.38 µM | GI50 [20] 0.553 µM | GI50 [21] 0.557 µM | GI50 [22] 1.36 µM | GI50 [23] 1.22 µM | GI50 [24] 0.796 µM | GI50 [25] 1.11 µM | GI50 [26] 1.88 µM | GI50 [27] 1.44 µM | GI50 [28] 0.806 µM
1.6 µM: TGI [21]
1.78 µM: TGI [7]
4.11 µM: TGI [17]
1.56 µM: TGI [12]
active: GI50 [9] 0.199 µM | GI50 [12] 0.351 µM
